Measured values: article PMC4738272 (Scientific Reports, 2016)
Several values for one entry are separate records, joined by “and”; a condition that tells them apart may be missing. Equal values may be shown once. Entries after “also recorded” stand apart in the source; their conditions may differ. Read-outs that look alike come from different tables or passages of the source.

Tests used:
[1] = test system: iPSc differentiated Cardiomyocytes; assay: Cardiac beating frequency from video recordings; format: cell-based, human; details: 4-organ co-culture under flow, 48 h drug treatment, day 7, vs control, ATR 100 μM, VPA 2 mM, APAP 5 mM
Method: Seven or fourteen days after the co-culture, cardiac beating frequency was quantified from video recordings of three different areas of each of the cMEA surfaces, where the cardiomyocytes culture where located. Surfaces were located in a 37 °C bath platform containing co-culture medium with 50 mM HEPES on the stage of a Zeiss Axioscope 2FS upright microscope. Beats were counted in a period of 10 s, and the average number of 3 values was obtained. Drug effect was plotted as percentage of change compared to the control conditions.

[2] = test system: Liver; parameters: method as in Literature; details: general toxic effects reported in the literature; ref Literature; cited from earlier work
[3] = test system: Muscle; parameters: method as in Literature; details: general toxic effects reported in the literature; ref Literature; cited from earlier work
[4] = cited from earlier work; for Toxic plasma concentration: humans
[5] = test system: Human Skeletal Myofibers; assay: MTT viability of skeletal muscle module in 4-organ system; details: 4-organ co-culture under flow, serum-free medium, 48 h drug treatment, day 7, vs control, DOX 5 μM, ATR 100 μM, VPA 2 mM, APAP 5 mM, AMAP 5 mM
Description: (§1) The four organ in vitro systems were assembled, on day 0, by placing the corresponding surfaces cell side up in a specific chamber of the housing (liver coverslip into chamber 1, cardiac coverslips and cantilevers into chambers 2 and 4, muscle coverslips into chamber 5, and neuron coverslips into chamber 3 and they were then topped with the serum-free co-culture medium (1X Neurobasal Medium, 1X B27, 1X AB/AM, 1X Glutamax (all from Life Technologies)) before locking the system. Right after assembling, the medium was completely replaced with 4 mL of the co-culture defined serum-free medium and the systems placed on a rocking platform inside an incubator. Platforms were checked every day by inspecting for expected cell morphology inside the system and by replacing medium (1.2 mL total volume) from the two reservoirs (30% of the total volume was replaced) with fresh medium. Drug incubation was initiated on day 5 of the co-culture by addition of the drug through the reservoir closer to the liver chamber (no. 1), allowing a first contact of the drug with the liver. 20 μL of the drug stock solution (or vehicle) to achieve a working concentration in 4 mL of total volume in the platform was utilized. On day 6, after 24 hours of drug incubation, 6 μL of the drug stock solution (or vehicle) was added to the fresh medium exchange volume (1.2 mL). After 48 hour of drug incubation, on day 7, systems were disassembled to test organ functionality that same day. For mono-culture conditions, surfaces remained in a 12-well plated with 1 mL of the co-culture defined serum-free medium maintained by daily replacement of half volume.
(§2) Seven days after the initiation of the co-culture, viability of each organ chamber, except for neurons, was evaluated through an MTT assay. […] Cell viability was measured at 570 nm in a Synergy HT plate reader and KC4 software. The results were expressed as the percentage of cell survival relative to the control (untreated or incubated with vehicle). The neuronal fraction viability was evaluated through morphological analysis throughout the co-culture experiment as the final coverslips were used for patch-clamp electrophysiology. Phase images (10X) where obtained every day of the co-culture. Neuronal viability was evaluated by cell morphology integrity and by cell count from day 1 to day 14.

[6] = test system: neurons; assay: Neuron electrophysiology recording (patch clamp); format: cell-based, human; details: 4-organ co-culture under flow, 48 h drug treatment, day 7, vs control, DOX 5 μM, ATR 100 μM; for Neuronal ion currents and firing of stimulated action potentials / Neuronal repetitive and spontaneous firing ability / Neuronal electrophysiology, overall effect: APAP 5 mM; for Neuronal repetitive and spontaneous firing ability / Neuronal electrophysiology, overall effect: AMAP 5 mM; for Neuronal electrophysiology, overall effect: VPA 2 mM
Description: Electrophysiological properties of neuron cultures where recorded on the last day of co-culture following a previously described method. Values of firing, repetitive firing, spontaneous firing, inward sodium current, outward potassium current, action potential peak voltage and the resting membrane potential, characterized the mature functionality of neurons in the in vitro system. Drug alterations of the neuronal electrophysiology are discussed in this manuscript.

[7] = test system: HepG2/C3A; assay: Urea quantification, liver fraction of 4-organ system; format: cell-based, human; details: 4-organ co-culture under flow, 48 h drug treatment, vs control; DOX 5 μM, ATR 100 μM, APAP 5 mM, AMAP 5 mM
[8] = test system: Human Skeletal Myofibers; assay: Myotube stimulated contraction (binary: contracting or not); format: cell-based; details: 4-organ co-culture under flow, 48 h drug treatment, day 7, broad-field electrical stimulation, DOX 5 μM, ATR 100 μM, VPA 2 mM, APAP 5 mM, AMAP 5 mM
Method: Myotube contraction in coverslips was evaluated after the co-culture was finalized. Individual surfaces were evaluated as previously reported in the group. Drugs effects were quantify in a binary code mode, cells were or were not contracting.

[9] = test system: HepG2/C3A; assay: Human Serum Albumin quantification (ELISA), liver fraction of 4-organ system; format: cell-based; details: 4-organ co-culture under flow, 48 h drug treatment, vs control, DOX 5 μM, ATR 100 μM, VPA 2 mM, APAP 5 mM, AMAP 5 mM
Method: Human Serum Albumin (HSA) production from the liver fraction was tracked throughout the co-culture, by measuring the HSA concentration in the supernatant of the culture as it represents liver protein anabolism. Samples were collected from the exchanged medium (1.2 mL) and stored at −20 °C until analysis. One freeze-thaw cycle occurred before samples were analyzed following manufacturers’ instructions provided in the ELISA Starter Accessory Kit (Bethyl Laboratories Inc, Cat #: E101). Samples were diluted as necessary in sample conjugate/diluent buffer to ensure readings measured within the range of the standard curve. The standard curve was prepared by serial dilutions of human reference serum in sample conjugate/diluent buffer (0–1600 ng/ml).
Final HSA concentrations were calculated in an excel file by first removing the average OD reading measured for blanks from average sample and standard OD readings. Concentrations of standard dilutions were plotted against average OD values measured in XY scatter plots. A standard curve was created by adding an order of 2 polynomial trendline to XY scatter plots and selecting the option to display the equation of the trendline, as well as the R^2 value, on each scatter plot (for ease of analysis HSA sigmoidal curves were split into 3 standard curves with HSA concentration ranges of 0–200 ng/ml, 200–800 ng/ml and […]). Quadratic equations were rearranged to make X (sample HSA concentration) the unknown variant. Y values (OD values) and a/b/c constants generated from trendline equations were inputted into rearranged quadratic equations per assay. HSA concentrations calculated were corrected accordingly for any differences in culture final volumes, sample dilutions during assays and cells number.

[10] = test system: neurons; assay: Neuronal viability by morphological analysis and cell count in 4-organ system; details: 4-organ co-culture under flow, serum-free medium, 48 h drug treatment, day 7, vs control, DOX 5 μM, ATR 100 μM, VPA 2 mM, APAP 5 mM, AMAP 5 mM
Description: as §1, §2

[11] = test system: Neurons; parameters: method as in Literature; details: general toxic effects reported in the literature; ref Literature; cited from earlier work
[12] = test system: HepG2; parameters: method as in PMID 19107278; details: microfluidic system, double the concentration of APAP of this manuscript; cited from earlier work
[13] = test system: iPSc differentiated Cardiomyocytes; assay: MTT viability of cardiac module in 4-organ system; details: 4-organ co-culture under flow, serum-free medium, 48 h drug treatment, day 7, vs control, DOX 5 μM, ATR 100 μM, VPA 2 mM, APAP 5 mM, AMAP 5 mM
Description: as §1, §2

[14] = test system: Cardiomyocytes; parameters: method as in Literature; details: general toxic effects reported in the literature; ref Literature; cited from earlier work
[15] = test system: CYP3A4; assay: Cytochrome p450 3A4 enzymatic activity in liver mono-culture; format: cell-based, human; details: ATR 100 μM, 48 hour incubation, data not shown
Method: Enzymatic products from 1A1 were run with LDR, and separately, 3A4 were run with LDR containing esterases. Enzymatic activities were finally represented as D-Luciferin picomoles produce in 1 hour by 1 × 10^6 cells.

| Compound | Cardiomyocyte beating rate (beat frequency), increase [1] | Drug effects on cell functionality, Liver, Literature [2] | Drug effects on cell viability, Liver, Literature [2] | Drug effects on cell functionality, Muscle, Literature [3] | Drug effects on cell viability, Muscle, Literature [3] | Skeletal muscle viability, loss [5] | Neuronal electrophysiology, overall effect [6] | Skeletal muscle loss of contractile ability (share of cultures in which contraction ceased) [8] | HSA (albumin) production, increase [9] | Neuronal cell viability, loss (cell loss by morphology/cell count) [10] | Drug effects on cell functionality, Neurons, Literature [11] | Drug effects on cell viability, Neurons, Literature [11] | Cardiomyocyte viability, loss [13] | Drug effects on cell functionality, Cardiomyocytes, Literature [14] | Drug effects on cell viability, Cardiomyocytes, Literature [14] | further results |
| --- | --- | --- | --- | --- | --- | --- | --- | --- | --- | --- | --- | --- | --- | --- | --- | --- |
| CC(=O)Nc1ccc(O)cc1 [Acetaminophen] | 27 ± 9% increase in beating frequency | Compromised | Toxicity reported | Myo-protective effect | Myo-protective effect | Toxicity not observed | Electrophysiology affected | 37% loss of contractile ability | not affected | 50 ± 18% loss of cell viability | Toxicity not reported | Toxicity not reported | Toxicity not observed | Cardio-protective effect | Cardio-protective effect | Therapeutic, and safe, plasma concentration ([4]; 500–1000 mg orally three times a day): low micromolar range; Toxic plasma concentration ([4]; after 24 hours): less than 50 μM; Toxic plasma concentration ([4]; first two hours after ingestion): around 2 mM; Skeletal muscle viability, loss ([5]; listed as APAP): not significantly affected; Neuronal ion currents and firing of stimulated action potentials [6]: no changes; Neuronal repetitive and spontaneous firing ability [6]: loss and lost; Urea production, increase [7]: 52 ± 13%; Skeletal muscle loss of contractile ability (share of cultures in which contraction ceased) ([8]; listed as APAP): 37%; Reduction in HepG2 viability [12]: 60%; Cardiomyocyte viability, loss ([13]; listed as APAP): not significantly affected; also recorded: preserved (even improved) |
| CC(C)c1c(C(=O)Nc2ccccc2)c(-c2ccccc2)c(-c2ccc(F)cc2)n1CC[C@@H](O)C[C@@H](O)CC(=O)O [Atorvastatin] | 43 ± 16% increase in beating rate | May be compromised | Toxicity reported | Compromised | Toxicity reported | 30 ± 15% loss | Electrophysiology affected | 50% loss of contractile ability | not affected | 47 ± 14% loss of cell viability | Toxic at higher concentration( ^**) | Toxic at higher concentration( ^**) | No toxic effect observed | Cardio-protective effect | Cardio-protective effect | Cardiomyocyte beating rate (beat frequency), increase ([1]; listed as ATR): 43 ± 16%; Skeletal muscle viability, loss ([5]; listed as ATR): 30 ± 15%; Neuronal action potential peak voltage and resting membrane potential (DOX also peak ionic currents) [6]: changes; Neuronal repetitive and spontaneous firing ability ([6]; listed as ATR): altered ability; also recorded: no repetitively firing cells were observed; Neuronal ion currents and firing of stimulated action potentials ([6]; listed as ATR): typical ion currents and stimulated firing APs; also recorded: regular AP activity was recorded with good sodium and potassium currents; Skeletal muscle loss of contractile ability (share of cultures in which contraction ceased) ([8]; listed as ATR): 50%; HSA (albumin) production, increase ([9]; listed as ATR): no change; Neuronal cell viability, loss (cell loss by morphology/cell count) ([10]; listed as ATR): 47 ± 14% and 47 ± 16%; Cardiomyocyte viability, loss ([13]; listed as ATR): no reduction; CYP3A4 activity induction [15]: 12 fold |
